Marks after values point to notes of the source that are not given here.
Tests used:
in vitro = format: cell-based
Method: Cellular viability determination after incubation with the test compounds (Labio_16 and Labio_17) was performed essentially as described elsewhere. Briefly, Vero (and Hacat/RAW) cells were grown in DMEM media supplemented with 10% inactivated fetal bovine serum and 1% penicillin-streptomycin. The cells were maintained in culture bottles at 37 °C in humidified atmosphere with 5% CO2. Cells were seeded at 3 × 10^3 cells per well (for Hacat/RAW or Vero) in a 96-well microtiter plate and incubated for 24 hours to adhere. Medium was carefully aspirated and replaced with 90 μL DMEM, and 10 μL of stocks of the chemical compounds were added to a final concentration of 20 μM (DMSO 2.0%, v/v). After 72 h at 37 °C under 5% of CO2, the cultures were incubated with 3-(4,5-dimethylthiazol-2-yl)-2,5-diphenyltetrazolium bromide (MTT) (1 mg mL^−1) for 3 h. The formazan crystals were dried at room temperature for at least 24 h and dissolved in DMSO. The absorbance was measured at 595 nm (Spectra Max M2e, Molecular Devices, USA). The percentage of cell viability for treated groups was reported considering the control wells (DMSO 0.5%-treated) as 100% of cell viability: cell viability (%) = (absorbance of treated wells/absorbance of control wells) x 100. Data are expressed as mean of cell viability ± standard error of mean of three independent experiments performed in triplicate.

[1] = tested on: M. tuberculosis H37Rv in infected RAW 264.7 macrophages; assay: Intracellular activity in M. tuberculosis-infected macrophages (CFU); format: cell-based, Mycobacterium tuberculosis; details: 5 μM; for Mean log CFU/well ± SEM: 5 days of incubation; for nature of intracellular activity (bactericidal / bacteriostatic): 5 days, vs early and late control
Zebrafish embryos [2] = assay: Zebrafish embryo toxicity: survival, hatching, heart frequency; format: in vivo, Danio rerio; details: for cardiotoxicity in the Zebrafish model: overall conclusion; for survival rate: treated from 2 hpf for 5 days, vs controls, Kaplan Meier
Method: Wild-type Zebrafish embryos were obtained from natural mating of adult Danio rerio bred[25] and maintained in an automated re-circulating tank system (Tecniplast, Italy). At 2 hpf (hours post fertilization) embryos were treated with different concentrations of compounds Labio_16 and Labio_17. Both compounds were diluted in DMSO for stock solutions of […] and diluted in fish water (Reverse Osmosis equilibrated with Instant Ocean Salt) to final concentrations of 1.0 μM, 3.5 μM and 7.0 μM (compound Labio_16) and 0.1 μM, 1.0 μM, 7.5 μM and 13.0 μM (compound Labio_17). Since both compounds were diluted first in DMSO, there were two control groups for each treatment, one only with fish water and the other one with the highest concentration of DMSO used in the treatments (0.035% for Labio_16 treatment and 0.065% for Labio_17 treatment).
Embryos were maintained in a 96 well plate during the 5 days of treatment inside an incubator with light-dark cycle of 14–10 hours and controlled temperature (28 °C)[25]. The solution pH and conductivity were monitored. Survival and hatching efficiency were accompanied under a stereomicroscope (OlympusSZ4045) every day, as well as developmental toxicity. Data for survival evaluation were analysed by Kaplan Meier survival test.
At 2 dpf (days post fertilization) and 5 dpf embryos heart frequency were quantified. For this, a single embryo per larvae was placed under a stereomicroscope (OlympusSZ4045) in petri-dishes with system water and their heart rate was monitored for 60 seconds by a blind experimenter (N = 10 in triplicates)[25][26]. For all procedures, temperature was kept constant at 28 °C. Data were analysed using One-way ANOVA, followed by Tukey multiple comparisons test.

Zebrafish embryos [3] = details: zebrafish (Danio rerio)
Method: (§1) An HPLC equipped with a quaternary pump, DAD detector, degasser, column oven and an automatic injection system was used in this set of experiments (Thermo® Scientific, Sunnyvale, USA). Stock standard solutions (1 M) of Labio_16 and Labio_17 were prepared by diluting each standard in DMSO. Standard solutions were prepared by diluting the stock solution in fish water, yielding final concentrations of 0.625, 1.25, 2.50, 5.0 and 10.0 μM for Labio_16; and 0.625, 1.25, 2.50, 5.0, 10.0 and 20 μM for Labio_17 in a final volume of 0.5 mL.
(§2) Chromatographic separations were carried out using a Nucleodur C-18 column at 20 °C. The mobile phase was a 20:80% mixture of 0.1% glacial acetic acid and acetonitrile:methanol 1:1 (v/v) for Labio_16, and a mixture of 20:80% of 20 mM of ammonium acetate and acetonitrile:methanol 1:1 (v/v) for Labio_17. A flow rate of 1.5 mL min^−1 was employed in isocratic mode, with run time of 7 minutes for Labio_16 and 12 minutes for Labio_17. The DAD detector was set at 300 nm and a full scan was continuously performed. The calibration curve for both analytes presented a correlation coefficient above 0.99.

[4] = format: physicochemical
Method: as §1, §2

| Structure (SMILES) | viability at 72 h, 20 µM (in vitro; African green monkey) [%] | viability at 72 h, 20 µM (in vitro; human) [%] | Mean log CFU/well ± SEM [1] | nature of intracellular activity (bactericidal / bacteriostatic) [1] | heart frequency at 5 dpf (Zebrafish embryos [2]; 3.5 μM and 7.0 μM against DMSO control) | hatching efficiency (Zebrafish embryos [2]; 1.0, 3.5, 7.0 μM vs controls) | heart frequency at 2 dpf (Zebrafish embryos [2]; all groups, one-way ANOVA) | cardiotoxicity in the Zebrafish model (Zebrafish embryos [2]) | survival rate (Zebrafish embryos [2]) | decrease of compound in in vivo assay medium (Zebrafish embryos [3]) [%] | decrease in compound concentration in stability test [4] [%] | heart frequency at 5 dpf (Zebrafish embryos [2]; 0.1 μM and 1.0 μM against H2O control) | heart frequency at 5 dpf (Zebrafish embryos [2]; 1.0 μM compared to DMSO control) | hatching efficiency (Zebrafish embryos [2]; two highest concentrations, 13.0 μM and 7.5 μM) |
| --- | --- | --- | --- | --- | --- | --- | --- | --- | --- | --- | --- | --- | --- | --- |
| Cc1ccccc1OCc1nc(-c2ccc(NC(=O)c3cccs3)cc2)no1 [Labio_16] | 89 ± 12 | 104 ± 12 | 3.9 ± 0.1 log CFU/well | bacteriostatic | a decrease in the heart rate | No difference | no difference | no cardiotoxicity | statistical difference | 55 ± 2 | 21 |  |  |  |
| CCOC(=O)c1ccc2nc(C)cc(Nc3ccc(N4CCCCC4)cc3)c2c1 [Labio_17] | 85 ± 8 | 84 ± 14 | 3.4 ± 0.1***^++ log CFU/well | bactericidal |  |  |  | signs of cardiotoxicity | dose-dependent statistical difference | 55 ± 2 | 21 | no difference | no difference | delayed hatching efficiency |
